Values of other authors, collected in US20080063781A1, “Globin Digest Containing, Yeast-Fermented Beverages” (Suntory Limited, priority 2004, published 2008).

Test system: serum triglyceride levels
Conditions: reported in JP 9-255698 A

Substance | suppressive activity against the elevation of serum triglyceride levels
Val-Val-Tyr-Pro (VVYP; printed: Val-Val-Tyr-Pro) | strong suppressive activity against the elevation of serum triglyceride levels
Val-Thr-Leu [VTL] | strong suppressive activity against the elevation of serum triglyceride levels
